These results are taken from patent US9556157B2, “Enhancer of zeste homolog 2 inhibitors” (GlaxoSmithKline Intellectual Property (No.2) Limited, priority 2013, dated 2017).

By IC50 is commonly meant the concentration at which inhibition is half-maximal.

Assay [1] has as its target T1, EZH2 within the PRC2 complex (Homo sapiens (Human), UniProt Q15910). The assay can be described thus: EZH2 methyltransferase SPA, mononucleosome substrate (Assay Protocol 1). It counts as biochemical. To be noted: mononucleosomes from HeLa cells, 3H-SAM. The procedure:
Compounds contained herein were evaluated for their ability to inhibit the methyltransferase activity of EZH2 within the PRC2 complex. Human PRC2 complex was prepared by co-expressing each of the 5 member proteins (FLAG-EZH2, EED, SUZ12, RbAp48, AEBP2) in Sf9 cells followed by co-purification. Enzyme activity was measured in a scintillation proximity assay (SPA) where a tritiated methyl group is transferred from 3H-SAM to a lysine residue on Histone H3 of a mononucleosome, purified from HeLa cells. Mononucleosomes were captured on SPA beads and the resulting signal is read on a ViewLux plate reader.
(§1) Part A. Compound Preparation
• 1. Prepare 10 mM stock of compounds from solid in 100% DMSO. • 2. Set up an 11-point serial dilution (1:3 dilution, top concentration 10 mM) in 100% DMSO for each test compound in a 384 well plate leaving columns 6 and 18 for DMSO controls. • 3. Dispense 100 nL of compound from the dilution plate into reaction plates (Grenier Bio-One, 384-well, Cat#784075). Part B. Reagent Preparation Prepare the following solutions: • 1. 50 mM Tris-HCl, pH 8: Per 1 L of base buffer, combine 1 M Tris-HCl, pH 8 (50 mL) and distilled water (950 mL). • 2. 1× Assay Buffer: Per 10 mL of 1× Assay Buffer, combine 50 mM Tris-HCl, pH 8 (9958 uL), 1 M MgCl2 (20 uL), 2 M DTT (20 uL), and 10% Tween-20 (2 uL) to provide a final concentration of 50 mM Tris-HCl, pH 8, 2 mM MgCl2, 4 mM DTT, 0.002% Tween-20. • 3. 2× Enzyme Solution: Per 10 mL of 2× Enzyme Solution, combine 1× Assay Buffer and PRC2 complex to provide a final enzyme concentration of 10 nM. • 4. SPA Bead Suspension: Per 1 mL of SPA Bead Suspension, combine PS-PEI coated LEADSeeker beads (40 mg) and H2O (1 mL) to provide a final concentration of 40 mg/mL. • 5. […] Read plates • 1. Read the assay plates on the Viewlux Plate Reader utilizing the 613 nm emission filter with a 300 s read time. […]
(§2) Percent inhibition was calculated relative to the DMSO control for each compound concentration and the resulting values were fit using standard IC50 fitting parameters within the ABASE data fitting software package.

Assay [2] deals with T1, EZH2 within the PRC2 complex. In words: EZH2 methyltransferase SPA, biotinylated histone H3K27 peptide substrate (Assay Protocol 2). It counts as biochemical. To be noted: 3H-SAM. The procedure: Compounds contained herein were evaluated for their ability to inhibit the methyltransferase activity of EZH2 within the PRC2 complex. Human PRC2 complex was prepared by co-expressing each of the 5 member proteins (FLAG-EZH2, EED, SUZ12, RbAp48, AEBP2) in Sf9 cells followed by co-purification. Enzyme activity was measured in a scintillation proximity assay (SPA) where a tritiated methyl group is transferred from 3H-SAM to a lysine residue on a biotinylated, unmethylated peptide substrate derived from histone H3. The peptides were captured on streptavidin-coated SPA beads and the resulting signal was read on a ViewLux plate reader.
as §1
• 4. Prepare 10 mM stock of compounds from solid in 100% DMSO. • 5. Set up an 11-point serial dilution (1:4 dilution, top concentration 10 mM) in 100% DMSO for each test compound in a 384 well plate leaving columns 6 and 18 for DMSO controls. • 6. Dispense 10 nL of compound from the dilution plate into reaction plates (Corning, 384-well polystyrene NBS, Cat#3673). Part B. Reagent Preparation Prepare the following solutions: • 7. 1× Base Buffer, 50 mM Tris-HCl, pH 8, 2 mM MgCl2: Per 1 L of base buffer, combine 1 M Tris-HCl, pH 8 (50 mL), 1 M MgCl2 (2 mL), and distilled water (948 mL). • 8. 1× Assay Buffer: Per 10 mL of 1× Assay Buffer, combine 1× Base Buffer (9.96 mL), 1 M DTT (40 uL), and 10% Tween-20 (1 uL) to provide a final concentration of 50 mM Tris-HCl, pH 8, 2 mM MgCl2, 4 mM DTT, 0.001% Tween-20. • 9. 2× Enzyme Solution: Per 10 mL of 2× Enzyme Solution, combine 1× Assay Buffer (9.99 mL) and 3.24 uM EZH2 5 member complex (6.17 uL) to provide a final enzyme concentration of 1 nM.
10. […] Read plates • 2. Read the assay plates on the Viewlux Plate Reader utilizing the 613 nm emission filter or clear filter (300 s exposure). […]
as §2

Each structure is given as a SMILES string.

T1 sequence (Q15910 whole entry): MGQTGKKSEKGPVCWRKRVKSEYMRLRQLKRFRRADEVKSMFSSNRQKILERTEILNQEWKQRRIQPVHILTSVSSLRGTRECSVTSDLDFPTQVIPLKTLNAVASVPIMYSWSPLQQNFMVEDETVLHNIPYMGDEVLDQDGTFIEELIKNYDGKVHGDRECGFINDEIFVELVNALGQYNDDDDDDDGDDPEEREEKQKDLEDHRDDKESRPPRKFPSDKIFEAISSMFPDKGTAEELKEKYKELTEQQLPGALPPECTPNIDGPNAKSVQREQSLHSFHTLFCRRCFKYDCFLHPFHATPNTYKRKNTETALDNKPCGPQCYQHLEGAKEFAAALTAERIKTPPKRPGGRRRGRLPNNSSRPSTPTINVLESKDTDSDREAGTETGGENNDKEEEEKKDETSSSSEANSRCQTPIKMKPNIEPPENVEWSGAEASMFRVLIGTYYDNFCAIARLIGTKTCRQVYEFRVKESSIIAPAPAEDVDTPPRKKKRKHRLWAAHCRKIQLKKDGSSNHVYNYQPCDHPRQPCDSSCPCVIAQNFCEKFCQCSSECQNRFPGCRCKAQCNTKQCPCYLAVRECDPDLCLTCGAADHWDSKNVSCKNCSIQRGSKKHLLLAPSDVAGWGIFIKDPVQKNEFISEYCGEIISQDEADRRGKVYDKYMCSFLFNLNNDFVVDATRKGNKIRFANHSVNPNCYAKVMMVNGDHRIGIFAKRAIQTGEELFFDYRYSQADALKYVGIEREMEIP
T1 sequence (O75530 whole entry partner): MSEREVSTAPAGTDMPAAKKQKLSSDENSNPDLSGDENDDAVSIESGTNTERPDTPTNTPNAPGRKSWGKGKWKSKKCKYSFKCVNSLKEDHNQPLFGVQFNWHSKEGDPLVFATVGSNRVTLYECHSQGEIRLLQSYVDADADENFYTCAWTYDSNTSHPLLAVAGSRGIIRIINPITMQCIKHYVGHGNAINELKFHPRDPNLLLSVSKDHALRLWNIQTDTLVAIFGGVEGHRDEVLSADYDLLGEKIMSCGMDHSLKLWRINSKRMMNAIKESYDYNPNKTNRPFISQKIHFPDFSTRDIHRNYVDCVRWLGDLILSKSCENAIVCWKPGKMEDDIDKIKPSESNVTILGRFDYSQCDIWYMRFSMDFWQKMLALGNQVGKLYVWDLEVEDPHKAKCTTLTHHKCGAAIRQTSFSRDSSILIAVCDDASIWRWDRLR
T1 sequence (Q15022 whole entry partner): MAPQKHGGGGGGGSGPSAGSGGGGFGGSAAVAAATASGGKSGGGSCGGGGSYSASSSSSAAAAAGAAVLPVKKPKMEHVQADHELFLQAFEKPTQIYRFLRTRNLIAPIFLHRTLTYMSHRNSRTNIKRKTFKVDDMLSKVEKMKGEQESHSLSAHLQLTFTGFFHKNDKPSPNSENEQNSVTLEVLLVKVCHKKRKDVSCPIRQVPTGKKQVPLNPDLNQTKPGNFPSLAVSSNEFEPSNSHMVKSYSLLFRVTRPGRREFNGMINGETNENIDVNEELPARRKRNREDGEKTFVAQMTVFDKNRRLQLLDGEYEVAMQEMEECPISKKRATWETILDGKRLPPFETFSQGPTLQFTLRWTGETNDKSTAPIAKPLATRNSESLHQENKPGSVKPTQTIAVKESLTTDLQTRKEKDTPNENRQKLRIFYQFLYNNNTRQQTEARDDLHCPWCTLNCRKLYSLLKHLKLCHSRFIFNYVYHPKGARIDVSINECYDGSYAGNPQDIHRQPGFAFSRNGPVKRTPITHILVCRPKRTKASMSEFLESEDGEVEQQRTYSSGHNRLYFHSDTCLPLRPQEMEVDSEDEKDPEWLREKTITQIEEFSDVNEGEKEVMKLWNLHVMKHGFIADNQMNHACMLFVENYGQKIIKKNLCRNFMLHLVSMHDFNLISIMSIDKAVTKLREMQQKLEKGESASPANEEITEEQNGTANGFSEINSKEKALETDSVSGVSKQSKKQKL
T1 sequence (Q09028 whole entry partner): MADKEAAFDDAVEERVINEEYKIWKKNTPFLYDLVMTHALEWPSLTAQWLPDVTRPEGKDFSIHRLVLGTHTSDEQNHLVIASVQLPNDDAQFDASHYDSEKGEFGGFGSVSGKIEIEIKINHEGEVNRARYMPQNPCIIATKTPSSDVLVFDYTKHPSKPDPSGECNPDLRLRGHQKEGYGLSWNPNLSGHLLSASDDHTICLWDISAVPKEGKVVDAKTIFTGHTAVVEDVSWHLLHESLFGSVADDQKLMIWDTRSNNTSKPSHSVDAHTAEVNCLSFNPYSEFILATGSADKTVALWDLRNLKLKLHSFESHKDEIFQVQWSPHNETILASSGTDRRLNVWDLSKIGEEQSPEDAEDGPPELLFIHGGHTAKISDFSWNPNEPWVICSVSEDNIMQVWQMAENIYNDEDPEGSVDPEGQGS
T1 sequence (Q6ZN18 whole entry partner): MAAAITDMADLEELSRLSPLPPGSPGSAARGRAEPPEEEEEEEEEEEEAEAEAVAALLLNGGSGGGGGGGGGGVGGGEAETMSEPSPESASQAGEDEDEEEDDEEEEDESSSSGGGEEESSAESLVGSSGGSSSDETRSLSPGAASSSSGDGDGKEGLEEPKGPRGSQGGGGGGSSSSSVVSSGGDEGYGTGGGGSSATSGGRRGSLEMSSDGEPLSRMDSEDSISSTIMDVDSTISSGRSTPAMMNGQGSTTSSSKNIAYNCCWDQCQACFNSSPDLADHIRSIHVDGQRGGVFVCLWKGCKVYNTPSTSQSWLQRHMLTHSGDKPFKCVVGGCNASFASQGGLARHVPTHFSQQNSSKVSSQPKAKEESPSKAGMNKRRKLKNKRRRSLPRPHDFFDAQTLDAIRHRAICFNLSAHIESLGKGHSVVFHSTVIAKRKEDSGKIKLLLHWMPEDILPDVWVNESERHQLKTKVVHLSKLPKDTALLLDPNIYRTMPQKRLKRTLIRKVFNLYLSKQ

Take `CCN(c1scc(C(=O)NCc2c(C)[nH]c(C)cc2=O)c1C)C1CCOCC1` [Example 1, N-((2,6-dimethyl-4-oxo-1,4-dihydropyridin-3-yl)methyl)-5-(ethyl(tetrahydro-2H-pyran-4-yl)amino)-4-methylthiophene-3-carboxamide]: in assay [1], the half-inhibitory concentration (IC50) was found to be 316 nM.
In the case of `CCN(c1scc(C(=O)NCc2c(C)[nH]c(C)c(N)c2=O)c1C)[C@H]1CC[C@H](N(C)C)CC1` [Example 3, N-((5-amino-2,6-dimethyl-4-oxo-1,4-dihydropyridin-3-yl)methyl)-5-(((trans)-4-(dimethylamino)cyclohexyl)(ethyl)amino)-4-methylthiophene-3-carboxamide], the IC50 worked out at 32 nM in assay [1] and 16 nM in assay [2].
In assay [2], `CCN(c1sc(Br)c(C(=O)NCc2c(C)[nH]c(C)cc2=O)c1C)[C@H]1CC[C@H](N(C)C)CC1` [Example 4, 2-Bromo-N-((2,6-dimethyl-4-oxo-1,4-dihydropyridin-3-yl)methyl)-5-(((trans)-4-(dimethylamino)cyclohexyl)(ethyl)amino)-4-methylthiophene-3-carboxamide] came in with a half-maximal inhibitory concentration (IC50) of 160 nM.
Take `CCN(c1scc(C(=O)NCc2c(C)[nH]c(C)cc2=O)c1C)[C@H]1CC[C@H](N(C)C)CC1` [Example 2, N-((2,6-dimethyl-4-oxo-1,4-dihydropyridin-3-yl)methyl)-5-(((trans)-4-(dimethylamino)cyclohexyl)(ethyl)amino)-4-methylthiophene-3-carboxamide]: the concentration for half-maximal inhibition (IC50) in assay [1] was 32 nM; in assay [2], 100 nM.
